# In patent US7655225B2, “Methods of expanding stem and progenitor cells and expanded cell populations obtained thereby” (Gamida Cell, Ltd., priority 2002, dated 2010):
# Tested on: CD34+ cells
# Experiment: Ex vivo expansion of purified CD34+ cells in liquid culture: cell enumeration and FACS of subsets
# Assay type: cell-based, human
# Conditions: for density of CD34+CD38− cells, fold higher than untreated control / density of CD34+ Lin− progenitor cells, fold higher than untreated control: with IL-3; for density of CD34+CD38− cells, fold higher than untreated control: FIG. 6b; for density of CD34+ Lin− progenitor cells, fold higher than untreated control: FIG. 6c
# Protocol: Sample collection and processing: Samples were obtained from umbilical human cord blood and processed within 12 hours. The blood cells were mixed with 3% Gelatin (Gigma, St. Louis, Mo.) and allowed to sediment for 30 minutes to remove most red blood cells. The leukocyte-rich fraction was harvested, layered on Ficoll-Hypaque (density 1.077 gram/ml; Sigma) and centrifuged at 400 g for 30 minutes at room temperature. The mononuclear cells in the interface layer were then collected, washed three times in phosphate-buffered saline (PBS; Biological Industries), and re-suspended in PBS solution which contains 1% bovine serum albumin (BSA; Sigma). The cells were then incubated at 4° C. for 30 minutes with murine monoclonal anti CD34^+ antibody (0.5 μg/10^6 mononuclear cells) and were thereafter isolated using two cycles of immuno-magnetic separation using the miniMACS CD34^+ Progenitor Cell Isolation Kit (Miltenyi-Biotec, Auburn, Calif.) according to the manufacturer's recommendations. The purity of the CD34^+ cells obtained ranged between 95% and 98%, based on Flow Cytometry evaluation (see below). Ex vivo expansion of progenitor cells: Enriched CD34^+ cell fractions were cultures in 24-well Costar Cell Culture Clusters (Corning Inc., Corning, N.Y.) or in Culture Bags (American Fluoroseal Corp.) with alpha minimal essential medium supplemented with 10% fetal bovine serum (FBS, Biological Industries), at about 1-3×10^4 cells/ml medium. The media were further supplemented with the following human recombinant cytokines (all obtained from Perpo Tech, Inc., Rocky Hill, N.J.): Thrombopoietin (TPO), 50 ng/ml; interleukin 6 (IL-6), 50 ng/ml; FLT-3 ligand, 50 ng/ml; and IL-3, 20 ng/ml. The cultures were incubated at 37° C. in an atmosphere of 5% CO2 in air with extra humidity. At weekly intervals cell cultures were semi-depopulated and supplemented with fresh medium containing the cytokines. Following different incubation periods, the cells were harvested, stained with trypan blue and enumerated. The total cell counts, numbers of CD34^+ cells and subsets thereof, and the number of colony-forming cells (CFU) are presented herein as cumulative numbers, with the assumption that the cultures had not been passaged, namely, the numbers of cells per ml were multiplied by the number of passages performed. Surface antigen analysis: At different time intervals, the cultured cells were harvested, washed with a PBS solution containing 1% BSA and 0.1% sodium azide (Sigma), and stained, at 4° C. for 60 minutes, with FITC-labeled anti CD45 monoclonal antibody and either PE-labeled anti CD34 (HPCA-2) monoclonal or PE-labeled control mouse Ig (all from Immunoquality Products, the Netherlands). The cells were then washed with the same PBS solution and were analyzed by a flow cytometer, as described hereinafter. Flow cytometry analysis: Cells were analyzed and sorted using FACS caliber flow cytometer (Becton-Dickinson, Immunofluorometry systems, Mountain View, Calif.). Cells were passed at a rate of 1,000 cells/second through a 70 μm nozzle, using a saline sheath fluid. A 488 nm argon laser beam at 250 mW served as the light source for excitation. Fluorescence emission of ten thousand cells was measured using a logarithmic amplification and analyzed using CellQuest software. Determination of the density of stem and progenitor subset populations following expansion: Following an incubation period, the CD34^+ cells were re-selected using miniMACS Miltenyi kit. The purity of the positive fraction of selected CD34^+ cells was confirmed by FACS analysis as well as by cell morphology analysis. The density of CD34^+ cells, in proportion (percentage) to total cells, was determined directly via FACS analysis. The densities of CD34^+ subset populations were determined from the purified CD34^+ fraction. Re-selected CD34^+ cells were stained with lineage specific antigens followed by FACS analysis to determine the percentage of the subset populations within the total number of CD34^+ cells. […]
smiles,measurement,setting,value
"NCCNCCNCCNCCN [TEPA chelator, tetraethylenepentamine]",density of CD34+ CD38− subset cells vs untreated or TEPA-Cu treatment,"three weeks, 5 μM, FIG. 12b",substantially increased
same,density of CD34+ Lin− subset cells vs untreated or TEPA-Cu treatment,"three weeks, 5 μM, FIG. 12c",substantially increased
same,density of CD34+CD38− cells vs untreated or TEPA-Cu treatment,"two and three weeks, 5 μM, FIG. 13b",substantially higher
same,density of CD34+ Lin− cells vs untreated or TEPA-Cu treatment,"two and three weeks, 5 μM, FIG. 13c",substantially higher
same,density of CD34+ cells vs untreated control,"two weeks culture, 5 μM, FIGS. 11a-b",slightly decreased
"NCCNCCNCCNCCN.[Cl-].[Cl-].[Cu+2] [TEPA-Cu chelate, tetraethylenepentamine-copper chelate]","density of CD34+CD38− cells, fold higher than untreated control","20 μM, two weeks",5 fold
same,"density of CD34+ Lin− progenitor cells, fold higher than untreated control","20 μM, two weeks",3 fold
same,"density of CD34+CD38− cells, fold higher than untreated control","40 μM, two weeks",15 fold
same,"density of CD34+ Lin− progenitor cells, fold higher than untreated control","40 μM, two weeks",5 fold
same,"density of CD34+CD38− cells, fold higher than untreated control","50 μM, two weeks",15 fold
same,"density of CD34+ Lin− progenitor cells, fold higher than untreated control","50 μM, two weeks",4 fold
same,number of CD34+ cells vs untreated (cytokines only) culture,"2 and 3 weeks, 30 μM or 40 μM, FIG. 5a",remained almost unchanged
same,"number of CD34+CD38− cells, fold higher than untreated control","3 weeks, 30 μM or 40 μM, FIG. 5b",6-7 fold
same,"number of CD34+ Lin− cells, fold higher than untreated control","3 weeks, 30 μM or 40 μM, FIG. 5c",4-6.5 fold
same,"density of CD34+ stem cells, expansion","three weeks, 40 μM, TPO, FLT-3, IL-6, SCF, untreated 40 fold, FIG. 4a",50 fold
same,"density of CD34+CD38− progenitor cells, expansion","three weeks, 40 μM, untreated 5 fold, FIG. 4b",250 fold
same,"density of CD34+ Lin− progenitor cells, expansion","three weeks, 40 μM, untreated 10 fold, FIG. 4c",110 fold
same,more total cells as compared with the untreated control,"three weeks, 50 μM, FIG. 8a",ca. 25%
same,density of CD34+ CD38− subset cells vs untreated control,"three weeks, 50 μM, FIG. 8c",substantially higher
same,density of CD34+ Lin− subset cells vs untreated control,"three weeks, 50 μM, FIG. 8d",substantially higher
same,CD34+ cell expansion vs untreated control,"two weeks culture, 40 μM, FIGS. 11a-b",did not significantly affect
same,"density of CD34+CD61+ progenitor cells, fold vs untreated control","two weeks, 40 μM, FIG. 7a",ca. 2 fold
same,"density of CD34+CD41+ progenitor cells, fold vs untreated control","two weeks, 40 μM, FIG. 7b",~3 fold
same,"density of CD34+ stem cells, fold higher than untreated control","two weeks, 20, 40 and 50 μM, TPO, FLT-3, IL-6, IL-3, FIG. 6a",ca. 1.5 fold
